# Test results taken from US10167262B2, “Herbicidal substituted 3-arylpyrazoles” (FMC CORPORATION, priority 2014, dated 2019).
# Like-named read-outs stand apart in the source and are kept apart here.
# How the values were obtained:
# Type in all cases: in vivo
# [1] = test system: lambsquarters (Chenopodium album); test: Test C pre-/postemergence greenhouse test, plant response rating 0-100; conditions: Chenopodium album; for pest or weed control at 62 g/ha: 62 g ai/ha; for pest or weed control at 125 g/ha: 125 g ai/ha; for pest or weed control at 250 g/ha: 250 g ai/ha
# Outline: (§1)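 Visual 0–100 control scores, taken 13 to 15 days post-application in a greenhouse, reflect treatment preemergence (seed in loam soil with sand) or postemergence (2–18 cm plants in peat moss, vermiculite medium). A dash marks no result.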
# soybean (Glycine max) = test: as above; conditions: Glycine max; for plant injury at 62 g/ha: 62 g ai/ha; for plant injury at 125 g/ha: 125 g ai/ha; for plant injury at 250 g/ha: 250 g ai/ha
# Outline: as §1
# [2] = test system: blackgrass (Alopecurus myosuroides); test: as above; conditions: Alopecurus myosuroides; for pest or weed control at 62 g/ha: 62 g ai/ha; for pest or weed control at 125 g/ha: 125 g ai/ha; for pest or weed control at 250 g/ha: 250 g ai/ha;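 as to all read-outs here: 0 is no effect and 100 is complete control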
# Outline: as §1
# [3] = test system: yellow nutsedge (Cyperus esculentus); test: as above; conditions: Cyperus; for pest or weed control at 62 g/ha: 62 g ai/ha; for pest or weed control at 125 g/ha: 125 g ai/ha; for pest or weed control at 250 g/ha: 250 g ai/ha
# Outline: as §1
# corn (Zea mays) = test: as above; conditions: Zea mays; for Corn plant response rating (crop injury, 0 = no effect, 100 = complete kill) at 250 g/ha: 250 g ai/ha
# Outline: as §1
# [4] = test system: pigweed (Amaranthus retroflexus); test: as above; conditions: Amaranthus retroflexus; for pest or weed control at 62 g/ha: 62 g ai/ha; for pest or weed control at 125 g/ha: 125 g ai/ha; for pest or weed control at 250 g/ha: 250 g ai/ha
# Outline: as §1
# [5] = test system: giant foxtail (Setaria faberii); test: as above; conditions: Setaria faberi; for pest or weed control at 62 g/ha: 62 g ai/ha; for pest or weed control at 125 g/ha: 125 g ai/ha; for pest or weed control at 250 g/ha: 250 g ai/ha
# Outline: as §1
# [6] = test system: oilseed rape (Brassica napus); test: as above
# Outline: as §1
# [7] = test system: johnsongrass (Sorghum halepense); test: as above; conditions: Sorghum halepense; for pest or weed control at 62 g/ha: 62 g ai/ha; for pest or weed control at 125 g/ha: 125 g ai/ha; for pest or weed control at 250 g/ha: 250 g ai/ha
# Outline: as §1
# [8] = test system: large (Lg) crabgrass (Digitaria sanguinalis); test: as above; conditions: Digitaria sanguinalis; for pest or weed control at 62 g/ha: 62 g ai/ha; for pest or weed control at 125 g/ha: 125 g ai/ha; for pest or weed control at 250 g/ha: 250 g ai/ha
# Outline: as §1
# [9] = test system: winter wheat (Triticum aestivum); test: as above; conditions: Triticum aestivum; for plant injury at 62 g/ha: 62 g ai/ha; for plant injury at 125 g/ha: 125 g ai/ha; for plant injury at 250 g/ha: 250 g ai/ha
# Outline: as §1
# [10] = test system: chickweed (common chickweed, Stellaria media); test: Test C postemergence greenhouse test, plant response rating 0-100; conditions: Stellaria media, post-emergence
# Outline: (§2)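 Postemergence spray onto 1–4-leaf potted seedlings, greenhouse incubation 13–15 days. Visual percent-control rating (0–100) against untreated plants.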
# wild oat (Avena fatua) = test: as above; conditions: Avena fatua, post-emergence
# Outline: as §2
# kochia (Kochia scoparia) = test: as above; conditions: Bassia scoparia, post-emergence
# Outline: as §2
# [11] = post-emergence, Postemergence, read-out: Plant response rating (0 to 100), Lambsquarters
# [12] = post-emergence, Postemergence, scale 0 to 100
# [13] = post-emergence, Postemergence, 500 g ai/ha, scale 0 to 100
# [14] = pre-emergence, Preemergence, 31 g ai/ha
# [15] = pre-emergence, Preemergence, read-out: Plant response rating, Lambsquarters
# [16] = post-emergence, Postemergence, read-out: Plant response rating (0 to 100), Soybean
# [17] = pre-emergence, Preemergence, read-out: Plant response rating, Soybean
# [18] = pre-emergence, Preemergence, read-out: Plant response rating, Blackgrass
# [19] = post-emergence, Postemergence, read-out: Plant response rating (0 to 100), Nutsedge, Yellow
# [20] = pre-emergence, Preemergence, read-out: Plant response rating, Nutsedge, Yellow
# [21] = post-emergence, Postemergence, read-out: Plant response rating (0 to 100), Pigweed
# [22] = pre-emergence, Preemergence, read-out: Plant response rating, Pigweed
# [23] = post-emergence, Postemergence, read-out: Plant response rating (0 to 100), Foxtail, Giant
# [24] = pre-emergence, Preemergence, read-out: Plant response rating, Foxtail, Giant
# [25] = post-emergence, Postemergence, read-out: Plant response rating (0 to 100), Johnsongrass
# [26] = pre-emergence, Preemergence, read-out: Plant response rating, Johnsongrass
# [27] = post-emergence, Postemergence, read-out: Plant response rating (0 to 100), Crabgrass, Large
# [28] = pre-emergence, Preemergence, read-out: Plant response rating, Crabgrass, Large
# [29] = post-emergence, Postemergence, read-out: Plant response rating (0 to 100), Wheat
# [30] = pre-emergence, Preemergence, read-out: Plant response rating, Wheat
structure (smiles),measurement,setting,value
"O=C(c1ccccc1)c1cn(CO)nc1-c1cc(Cl)cc(Cl)c1 [Compound 15, [3-(3,5-dichlorophenyl)-1-(hydroxymethyl)-1H-pyrazol-4-yl]phenylmethanone]",pest or weed control at 62 g/ha,[1]; [11],75%
same,pest or weed control at 125 g/ha,[1]; [11],80%
same,pest or weed control at 250 g/ha,[1]; [12],80%
same,pest or weed control at 500 g/ha,[1]; [13],90%
same,pest or weed control at 31 g/ha,[1]; [14],100%
same,pest or weed control at 62 g/ha,[1]; [15],100%
same,pest or weed control at 125 g/ha,[1]; [15],100%
same,pest or weed control at 250 g/ha,"[1]; pre-emergence, Preemergence",100%
same,plant injury at 62 g/ha,soybean (Glycine max); [16],0%
same,plant injury at 125 g/ha,soybean (Glycine max); [16],0%
same,plant injury at 250 g/ha,soybean (Glycine max); [12],0%
same,plant injury at 500 g/ha,soybean (Glycine max); [13],5%
same,plant injury at 62 g/ha,soybean (Glycine max); [17],0%
same,plant injury at 125 g/ha,soybean (Glycine max); [17],0%
same,plant injury at 250 g/ha,"soybean (Glycine max); pre-emergence, Preemergence",0%
same,pest or weed control at 62 g/ha,"[2]; post-emergence, Postemergence, read-out: Plant response rating (0 to 100), Blackgrass",0%
same,pest or weed control at 125 g/ha,"[2]; post-emergence, Postemergence, scale 0 to 100, read-out: Plant response rating, Blackgrass",0%
same,pest or weed control at 250 g/ha,[2]; [12],0%
same,pest or weed control at 500 g/ha,[2]; [13],0%
same,pest or weed control at 31 g/ha,"[2]; pre-emergence, Preemergence, 31 g ai/ha, read-out: Plant response rating, Blackgrass",0%
same,pest or weed control at 62 g/ha,[2]; [18],0%
same,pest or weed control at 125 g/ha,[2]; [18],0%
same,pest or weed control at 250 g/ha,"[2]; pre-emergence, Preemergence",0%
same,pest or weed control at 62 g/ha,[3]; [19],0%
same,pest or weed control at 125 g/ha,[3]; [19],0%
same,pest or weed control at 250 g/ha,[3]; [12],0%
same,pest or weed control at 500 g/ha,[3]; [13],0%
same,pest or weed control at 31 g/ha,[3]; [14],0%
same,pest or weed control at 62 g/ha,[3]; [20],0%
same,pest or weed control at 125 g/ha,[3]; [20],0%
same,pest or weed control at 250 g/ha,"[3]; pre-emergence, Preemergence",0%
same,plant injury at 62 g/ha,"corn (Zea mays); post-emergence, Postemergence, 62 g ai/ha",0%
same,plant injury at 125 g/ha,"corn (Zea mays); post-emergence, Postemergence, 125 g ai/ha",0%
same,"Corn plant response rating (crop injury, 0 = no effect, 100 = complete kill) at 250 g/ha",corn (Zea mays); [12],0%
same,"Corn plant response rating (crop injury, 0 = no effect, 100 = complete kill) at 500 g/ha",corn (Zea mays); [13],0%
same,"Corn plant response rating (crop injury, 0 = no effect, 100 = complete kill) at 31 g/ha",corn (Zea mays); [14],0%
same,"Corn plant response rating (crop injury, 0 = no effect, 100 = complete kill) at 62 g/ha","corn (Zea mays); pre-emergence, Preemergence, 62 g ai/ha",0%
same,"Corn plant response rating (crop injury, 0 = no effect, 100 = complete kill) at 125 g/ha","corn (Zea mays); pre-emergence, Preemergence, 125 g ai/ha",0%
same,"Corn plant response rating (crop injury, 0 = no effect, 100 = complete kill) at 250 g/ha","corn (Zea mays); pre-emergence, Preemergence",0%
same,pest or weed control at 62 g/ha,[4]; [21],90%
same,pest or weed control at 125 g/ha,[4]; [21],100%
same,pest or weed control at 250 g/ha,[4]; [12],100%
same,pest or weed control at 500 g/ha,[4]; [13],100%
same,pest or weed control at 31 g/ha,[4]; [14],100%
same,pest or weed control at 62 g/ha,[4]; [22],100%
same,pest or weed control at 125 g/ha,[4]; [22],100%
same,pest or weed control at 250 g/ha,"[4]; pre-emergence, Preemergence",100%
same,pest or weed control at 62 g/ha,[5]; [23],0%
same,pest or weed control at 125 g/ha,[5]; [23],0%
same,pest or weed control at 250 g/ha,[5]; [12],0%
same,pest or weed control at 500 g/ha,[5]; [13],10%
same,pest or weed control at 31 g/ha,"[5]; pre-emergence, Preemergence, 31 g ai/ha, read-out: Plant response rating, Foxtail, Giant",0%
same,pest or weed control at 62 g/ha,[5]; [24],0%
same,pest or weed control at 125 g/ha,[5]; [24],0%
same,pest or weed control at 250 g/ha,"[5]; pre-emergence, Preemergence",0%
same,"Plant response rating (0 to 100), Oilseed Rape","[6]; Postemergence, 62 g ai/ha",60
same,"Plant response rating (0 to 100), Oilseed Rape","[6]; Postemergence, 125 g ai/ha",90
same,"Plant response rating, Oilseed Rape","[6]; Postemergence, 250 g ai/ha, scale 0 to 100",90
same,"Plant response rating, Oilseed Rape","[6]; Postemergence, 500 g ai/ha, scale 0 to 100",90
same,"Plant response rating, Oilseed Rape","[6]; Preemergence, 31 g ai/ha",0
same,"Plant response rating, Oilseed Rape","[6]; Preemergence, 62 g ai/ha",50
same,"Plant response rating, Oilseed Rape","[6]; Preemergence, 125 g ai/ha",50
same,"Plant response rating, Oilseed Rape","[6]; Preemergence, 250 g ai/ha",80
same,pest or weed control at 62 g/ha,[7]; [25],0%
same,pest or weed control at 125 g/ha,[7]; [25],0%
same,pest or weed control at 250 g/ha,[7]; [12],0%
same,pest or weed control at 500 g/ha,[7]; [13],0%
same,pest or weed control at 31 g/ha,[7]; [14],0%
same,pest or weed control at 62 g/ha,[7]; [26],0%
same,pest or weed control at 125 g/ha,[7]; [26],0%
same,pest or weed control at 250 g/ha,"[7]; pre-emergence, Preemergence",0%
same,pest or weed control at 62 g/ha,[8]; [27],0%
same,pest or weed control at 125 g/ha,[8]; [27],0%
same,pest or weed control at 250 g/ha,[8]; [12],0%
same,pest or weed control at 500 g/ha,[8]; [13],0%
same,pest or weed control at 31 g/ha,"[8]; pre-emergence, Preemergence, 31 g ai/ha, read-out: Plant response rating, Crabgrass, Large",0%
same,pest or weed control at 62 g/ha,[8]; [28],0%
same,pest or weed control at 125 g/ha,[8]; [28],0%
same,pest or weed control at 250 g/ha,"[8]; pre-emergence, Preemergence",0%
same,plant injury at 62 g/ha,[9]; [29],0%
same,plant injury at 125 g/ha,[9]; [29],0%
same,plant injury at 250 g/ha,[9]; [12],0%
same,plant injury at 500 g/ha,[9]; [13],0%
same,plant injury at 62 g/ha,[9]; [30],0%
same,plant injury at 125 g/ha,[9]; [30],0%
same,plant injury at 250 g/ha,"[9]; pre-emergence, Preemergence",0%
same,pest or weed control at 62 g/ha,[10]; 62 g ai/ha,95%
same,pest or weed control at 125 g/ha,[10]; 125 g ai/ha,95%
same,pest or weed control at 250 g/ha,"[10]; 250 g ai/ha, scale 0 to 100",100%
same,pest or weed control at 500 g/ha,"[10]; 500 g ai/ha, scale 0 to 100",100%
same,pest or weed control at 62 g/ha,wild oat (Avena fatua); 62 g ai/ha,0%
same,pest or weed control at 125 g/ha,wild oat (Avena fatua); 125 g ai/ha,0%
same,pest or weed control at 250 g/ha,"wild oat (Avena fatua); 250 g ai/ha, scale 0 to 100",0%
same,pest or weed control at 500 g/ha,"wild oat (Avena fatua); 500 g ai/ha, scale 0 to 100",0%
same,pest or weed control at 62 g/ha,kochia (Kochia scoparia); 62 g ai/ha,70%
same,pest or weed control at 125 g/ha,kochia (Kochia scoparia); 125 g ai/ha,85%
same,pest or weed control at 250 g/ha,"kochia (Kochia scoparia); 250 g ai/ha, scale 0 to 100",85%
same,pest or weed control at 500 g/ha,"kochia (Kochia scoparia); 500 g ai/ha, scale 0 to 100",90%
